Columns and labels:
Format in all cases: cell-based, human
[1] = tested on: cell surface calreticulin on HSC-3 cells; assay: Flow cytometric detection of cell surface calreticulin; conditions: HSC-3, 24 h; cisplatin 50 µM, MPMs 5-20 µM; vs untreated
Description: This procedure was based on a published method ([Liu et al., 2020]), but was performed with some modifications. Briefly, HSC-3 and UT-SCC-24A cells were seeded, 300,000 cells/well, in 6-well plates and left to adhere overnight. The media was then removed and replaced by 2 ml complete DMEM/F-12 containing 5, 7.5, 10 or 20 µM of MPM-2:0, MPM-6:0, MPM-3:2 or MPM-4:2, or 50 µM cisplatin. Some cells were left untreated. The cells were then incubated for 24 h. Next, the cell supernatants were collected before the cells were trypsinized and spun down with the supernatants. The cells were then washed in PBS before being incubated with the viability dye Zombie Violet (#423114, BioLegend, San Diego, CA, United States) diluted 1:500 in PBS for 20 min. Next, the cells were incubated with an anti-calreticulin antibody (#ab2907, Abcam) diluted 1:100 in FACS buffer (2%BSA in PBS) for 30 min. The cells were then fixed in 4% formaldehyde for 15 min and washed twice in FACS buffer before being incubated with the secondary antibody (#A11034, Thermo Fisher Scientific) diluted 1:250 in FACS buffer for 30 min. The cells were washed in FACS buffer and analyzed on a LSR Fortessa (BD Biosciences) within 1 week. Analyses were performed in FlowJo™ v.10 (https://www.flowjo.com/).

HSC-3 cells [2] = assay: MTS viability assay with bafilomycin A1 and z-VAD-FMK; conditions: HSC-3, 24 h; cisplatin 50 µM, MPM-2:0/MPM-6:0 5 µM, MPM-3:2/MPM-4:2 10 µM
Description: HSC-3 and UT-SCC-24A cells were seeded, 10,000 cells/well, in flat bottom 96-well plates and left to adhere overnight. The supernatants were then removed and replaced by 50 µl of complete DMEM/F-12 ± 100 nM BafA1 (#196000, Sigma-Aldrich, St. Louis, MO, United States) or 50 µM z-VAD-FMK (#219007, Sigma-Aldrich). The plate was then incubated for 1 hour before another 50 µl of complete DMEM/F-12 ± 100 nM BafA1 or 50 µM z-VAD-FMK as well as the MPMs or cisplatin was added. The final concentration of cisplatin was 50 µM and for the MPMs it was 5 or 10 µM for MPM-2:0 and MPM-6:0, and 10 or 20 µM for MPM-3:2 and MPM-4:2, for HSC-3 and UT-SCC-24A cells, respectively. 100 μl of media ± 1% Triton X-100 served as […]. The cells were incubated for 24 h before 20 µl of MTS reagent (CellTiter 96® Aqueous One Solution, Promega, Madison, WI, United States) was added to each well. The plate was then incubated for one more hour before absorbance was measured at 490 nm on a VersaMaxTM Microplate reader (Molecular Devices, San Jose, CA, United States). Viability was calculated using the following formula: %=Abs treated sample−Abs positive control/Abs negative control−Abs positive control x 100
At least three independent experiments were performed, with triplicate wells in each experiment.

HSC-3 cells [3] = assay: Scratch wound invasion assay (myogel-collagen); conditions: HSC-3, 10 µM, 24 h; control cells approximately 24 h
Description: (§1) Two Incucyte image lock 96-well plates (#4379, Sartorius) were coated with 50 µl myogel (0.5 mg/ml) per well. The next day, the media remaining in the wells was removed before HSC-3 cells were seeded at a density of 25,000 cells/well in 100 µl. The cells were left to adhere, and the following day, a scratch was made in the middle of each well using the Incucyte 96-pin WoundMaker tool (Sartorius). The wells were then washed once with media. For the migration assay, the media in each well was then replaced with 100 µl of media containing 0.1, 1 or 10 µM of MPM-2:0 or MPM-4:2. For the invasion assay, the media was replaced by 50 µl of a gel consisting of serum-free media, myogel (2.4 mg/ml), type I rat tail collagen (0.8 mg/ml, Corning, NY, USA) and 0.1, 1 or 10 µM of MPM-2:0 or MPM-4:2. The plate was incubated at 37°C for 1 h to let the gel solidify. Next, 100 µl of media, also containing 0.1, 1 or 10 µM of MPM-2:0 or MPM-4:2 was added on top of the gel. Both the migration and invasion plates were placed in the Incucyte S3 (Sartorius) and imaged at ×10 magnification every 2 hours for 24 h in total. The Incucyte software was used to analyze the relative wound density.

UT-SCC-24A cells = assay: Western blot for extracellular HMGB1; conditions: 24 h, supernatant
Description: Detection of HMGB1 in the supernatant of MPM treated HSC-3 and UT-SCC-24A cells was performed as previously described ([von Hofsten et al., 2022]). Briefly, HSC-3 and UT-SCC-24A cells were seeded, 100,000 cells/well in 12-well plates and left to adhere overnight. The following day, the media was removed and replaced with media containing either 50 µM cisplatin, 5 or 10 µM MPM-2:0 or MPM-6:0, or 10 or 20 µM MPM-3:2 or MPM-4:2. The cells were incubated for 24 h before supernatants were collected and centrifuged to remove debris. Supernatant samples were mixed with DTT (final concentration 50 mM) and sample buffer before being boiled for 5 min and loaded on a NuPAGE® 10% Bis–Tris Gel (Thermo Fisher Scientific) before being electro-transferred to a polyvindiline dilfluoride (PVDF) immobilon-P membrane (Merck, Rahway, NJ, United States). The membrane was blocked for 1 h with 5% non-fat dry milk in TBST and then incubated overnight at 4°C with the primary antibody targeting HMGB1 (#ab18256, Abcam) diluted 1:1,000 in TBST 5% non-fat dry milk. Next, the membrane was washed three times in TBST and incubated with an HRP-conjugated goat anti-rabbit secondary antibody (#4050-05, Southern Biotech, Birmingham, AL, United States) diluted 1:2000 in TBST 5% non-fat dry milk at room temperature for 1 h. […]

HSC-3 cells [4] = assay: Scratch wound migration assay; conditions: for wound closure in migration assay (in words): HSC-3, 10 µM, 24 h; for wound closing at the lower concentrations (in words): HSC-3, 0.1 or 1 µM, text does not separate migration and invasion
Description: as §1

SMILES	cell surface expression of calreticulin (in words) [1]	viability in the presence of BafA1 (100 nM) or z-VAD-FMK (50 µM) (in words) (HSC-3 cells [2])	wound closure in invasion assay (in words) (HSC-3 cells [3])	release of HMGB1 (in words) (UT-SCC-24A cells)	wound closure in migration assay (in words) (HSC-3 cells [4])	wound closing at the lower concentrations (in words) (HSC-3 cells [4])
N.N.[Cl][Pt][Cl] [Cisplatin, cisplatin, reference compound]	did not induce any cell surface expression of calreticulin	z-VAD-FMK seemed to have some protective effects against cisplatin for both cell lines, while BafA1 had the opposite effect				
NCCN1C(=O)N(CCN)C(=O)C(CCCc2ccccc2)(CCCc2ccccc2)C1=O [MPM-2:0]			induced cell death so quickly that it was not possible to study the effect on migration or invasion	statistically significant	induced cell death so quickly that it was not possible to study the effect on migration or invasion	trend towards faster wound closing
CN(C)CCCCN1C(=O)N(CCCCN(C)C)C(=O)C(CCCc2ccccc2)(CCCc2ccccc2)C1=O [MPM-4:2]			never managed to close the wound		required more time to close the wound	trend towards faster wound closing
NCCCCCCN1C(=O)N(CCCCCCN)C(=O)C(CCCc2ccccc2)(CCCc2ccccc2)C1=O [MPM-6:0]		z-VAD-FMK increase viability more than BafA1		statistically significant		
